Patent US10494332B2, “Protein tyrosine phosphatases or SHP2 inhibitors and uses thereof” (Indiana University Research and Technology Corporation, priority 2015, dated 2019)

How the values were obtained:
M. tuberculosis H37Rv = assay: Microplate Alamar Blue assay (MABA) MIC; format: cell-based, Mycobacterium tuberculosis
M. tuberculosis Erdman = assay: Microplate Alamar Blue assay (MABA) MIC; format: cell-based; conditions: Mycobacterium tuberculosis, minimum inhibitory concentration, read-out: In vitro anti-Mtb activity MABA-MIC Erdman
[1] = tested on: M. tuberculosis (Erdman and H37Rv) in J774 macrophages; assay: Macrophage assay: growth of M. tuberculosis in IFN-γ activated J774 macrophages; format: cell-based, Mycobacterium tuberculosis
[2] = Pharmacokinetics and bioavailability in guinea pigs; format: in vivo, guinea pig
Experimental: All drugs were suspended in 1% DMSO, 0.5% DEA, 48.5% PEG 400, and 50% water. Blood was collected for analysis of these drugs in plasma pre-dose and at 1, 4, 8, 24, and 48 h post-dose. Plasma was separated and stored at −70° C. until analysis. Plasma drug concentrations were determined by liquid chromatography-mass spectrometry and liquid chromatography-tandem mass spectrometry over the concentration range of 0.005-1 mg/L with dilution to 10 mg/L. Pharmacokinetic variables were calculated from individual drug concentration-time data using non-compartmental methods as implemented in WinNonlin version 5.0 (Pharsight, Mountain View, Calif.) as described earlier.

[3] = tested on: mPTPB transfected Raw264.7 cells; assay: IFN-γ induced Erk1/2 phosphorylation in transfected Raw264.7 macrophages; format: cell-based, mouse
Experimental: Raw264.7 mouse macrophages were cultured in Dulbecco's modified Eagle's medium (DMEM) supplemented with 10% FBS (Invitrogen), penicillin (50 units/mL), and streptomycin (50 μg/mL) under a humidified atmosphere containing 5% CO2 at 37° C. Transfected Raw264.7 cells (Vector, WT-mPTPB) were seeded in a 12-well plate at a density of 4×10^4 cells/well. The following day cells were treated with mPTPB inhibitor 11a for 1 hour, then stimulated with IFN-γ (200 U/ml) for 1 hour. Subsequently, the cells were washed with ice-cold phosphate buffered saline, and lysed with lysis buffer on ice for 30 minutes. Cell lysate was then cleared by centrifuging at 13,000 rpm for 15 minutes. The phosphorylation of ERK1/2 was detected by Western blotting.

[4] = tested on: insulin signaling pathway in HepG2 cells (LMWPTP); assay: Insulin signaling in HepG2 cells; format: cell-based; conditions: HepG2, 1 hour pretreatment, 5 nM insulin for 5 minutes
Experimental: To assess the effects of L335N15 in insulin signaling pathway, HepG2 cells were pretreated with L335N15 for 1 hour and were subsequently stimulated with 5 nM insulin for 5 minutes. […] Consistent with IR activation, downstream Akt phosphorylation (Ser473) was increased. […] Accordingly, LMWPTP inhibitors such as L335N15 described herein can be used to develop agents for the treatment of type 2 diabetes and insulin resistance.

Which “Activity in standard MIC assay” value (M. tuberculosis H37Rv) does the source give for Cc1c(Br)cc(NC(=O)CS(=O)(=O)O)cc1Br here?
Its value is “devoid of activity”.

And the MIC (M. tuberculosis H37Rv; Mycobacterium tuberculosis, H37RV, minimum inhibitory concentration, read-out: In vitro anti-Mtb activity MABA-MIC H37Rv)?
Its MIC is greater than 10 µM.

And the MIC (M. tuberculosis Erdman)?
The MIC was greater than 10 µM.

And the “Anti-Mtb activity in infected macrophages” value ([1]; J774A.1 macrophages, low micromolar concentrations)?
The value was “markedly decrease bacterial load”.

And the IC90 ([1]; Mycobacterium tuberculosis, J774, IC90 in macrophages activated with interferon-γ, read-out: In vitro anti-Mtb activity, Mtb-infected macrophages (IC90))?
The IC90 was 1380 nM.

What about the “Time plasma concentration 10-fold in excess of biochemical IC50” value ([2]; guinea pig, in vivo, po) of the same molecule?
The value was 12-14 hours.

What about the Tmax ([2]; guinea pig, plasma, po) of the same molecule?
Its Tmax is 2.5 h.

What about the “Oral bioavailability and half-life in guinea pigs” value ([2]; oral) of the same molecule?
Its value is “good oral bioavailability and half-life”.

With O=C(C(c1ccccc1)S(=O)(=O)O)N1CCCC2CCCCC21 (stereo not drawn) [Compound L319N53] as the molecule, how does the “Erk1/2 phosphorylation in mPTPB transfected Raw264.7 cells” value ([3]; 8 nM, 16 nM, and 32 nM) read?
The value was “increased Erk1/2 phosphorylation”.

What about the “Erk1/2 phosphorylation in vector cells” value ([3]; vector Raw264.7 cells) of the same molecule?
Its value is “no effect”.

With O=C(CS(=O)(=O)O)Nc1nc2ccccc2s1 [Compound L335N15] as the molecule, how does the “Akt phosphorylation (Ser473)” value [4] read?
Its value is “increased”.

What about the “IR Tyr1162/1163 phosphorylation” value ([4]; relative to DMSO) of the same molecule?
Its value is “enhanced IR Tyr1162/1163 phosphorylation in a dose-dependent fashion”.
